Read-outs that look alike come from different tables or passages of the source.

This note sets out measurements from patent publication US12344618B2, “Heterotricyclic derivative compound and use of same” (HANMI PHARMACEUTICAL CO., LTD., priority 2019, dated 2025).

The nature of data set [1]: Metabolic stability in human liver microsomes. The following applies: 5 μM compound, 1 mg/mL human liver microsomes, 37° C., NADPH regenerating system. The format is in vitro ADME. Here is the method: (§1) In order to confirm the metabolic stability of the synthetic compounds in the liver, 5 μM test compound and 1 mg/mL human, dog, rat or mouse liver microsomes were allowed to react with each other at 37° C. in the presence of the NADPH regenerating system for 1 hour. After 1 hour, the reaction was terminated and the supernatant obtained by centrifugation was analyzed by HPLC. With the peak value obtained as the analysis result, the residual amount (%) was calculated using the following equation through the peak value of the test compound after 1 hour of the reaction versus the peak value of the test compound at 0 min. Residual amount (%)=(peak value of test compound after 1 hour of reaction/peak value of test compound at 0 min)×100

The next data set concerns the target EZH2 (Homo sapiens, UniProt Q15910). As to the kind of experiment: Inhibitory activity against EZH2 methyltransferase (radiometric scintillation proximity assay).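 Further: Read-out is substrate peptide methylation, captured on streptavidin-coated SPA beads and counted by scintillation, with the reaction run in Tris-HCl buffer at pH 8.0 containing 1% DMSO.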 Particulars: Enzyme inhibitory activity (IC50, nM) EZH2, 2.3 nmol/L enzyme, 90 minutes, room temperature.
For the next data set, the target named is T1, EZH1 (Homo sapiens, UniProt Q92800).
T1 construct: purchased Reaction Biology Corp. (contract assay)
Kind of data set: Inhibitory activity against EZH1 methyltransferase (radiometric scintillation proximity assay).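 Further: Read-out is methylation of a substrate peptide, captured on streptavidin-coated SPA beads and counted by scintillation, in Tris-HCl buffer at pH 8.0 with 1% DMSO.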 The data set is classed as biochemical. Particulars: 2.3 nmol/L enzyme, 90 minutes, room temperature.

Data set [2] in a line: Metabolic stability in mouse liver microsomes. The data set is classed as in vitro ADME. Particulars: 5 μM compound, 1 mg/mL mouse liver microsomes, 37° C., NADPH regenerating system. Here is the method: as §1
Data set [3] relates to KARPAS-422 (EZH2 Y641N mutation). Kind of data set: Cell growth inhibition test, KARPAS-422. The data set is classed as cell-based. The following applies: KARPAS-422, culture time 7 days, read-out: Cell growth inhibitory activity (GI50, nM) KARPAS-422 (EZH2 Y641N mutation). Here is the method: Each type of the cultured cells was seeded in 6-well plates or 48-96 well plates, and subculture or medium replacement was performed every 3 to 4 days. Next, the cells were subcultured for a total of 7 to 14 days, and then seeded in 96-well plates. 3 to 5 days before the measurement of the effect, the cells were seeded in 96-well plates, and then the absorbance (Tz) on the day of seeding was measured. The absorbance after the reaction was measured by the plate reader device Synergy NeoAlpha (Biotek) using Cell-Titer-Glo Cell Viability Assay (Promega, G7573) according to the attached manual. Based on the absorbance (Tz) measured on the seeding day and the absorbance of each of the DMSO-treated group (C) and the sample-added group (Ti) measured on the day of effect determination, the percentage of cell proliferation inhibition was calculated according to the following Equation 1. [(Ti−Tz)/(C−Tz)]×100 for concentrations for which Ti≥Tz […] for concentrations for which Ti<Tz. [Equation 1]

Where [4] appears, read: Homo sapiens, KARPAS-422, 168 h.

T1 sequence (Q92800 whole entry): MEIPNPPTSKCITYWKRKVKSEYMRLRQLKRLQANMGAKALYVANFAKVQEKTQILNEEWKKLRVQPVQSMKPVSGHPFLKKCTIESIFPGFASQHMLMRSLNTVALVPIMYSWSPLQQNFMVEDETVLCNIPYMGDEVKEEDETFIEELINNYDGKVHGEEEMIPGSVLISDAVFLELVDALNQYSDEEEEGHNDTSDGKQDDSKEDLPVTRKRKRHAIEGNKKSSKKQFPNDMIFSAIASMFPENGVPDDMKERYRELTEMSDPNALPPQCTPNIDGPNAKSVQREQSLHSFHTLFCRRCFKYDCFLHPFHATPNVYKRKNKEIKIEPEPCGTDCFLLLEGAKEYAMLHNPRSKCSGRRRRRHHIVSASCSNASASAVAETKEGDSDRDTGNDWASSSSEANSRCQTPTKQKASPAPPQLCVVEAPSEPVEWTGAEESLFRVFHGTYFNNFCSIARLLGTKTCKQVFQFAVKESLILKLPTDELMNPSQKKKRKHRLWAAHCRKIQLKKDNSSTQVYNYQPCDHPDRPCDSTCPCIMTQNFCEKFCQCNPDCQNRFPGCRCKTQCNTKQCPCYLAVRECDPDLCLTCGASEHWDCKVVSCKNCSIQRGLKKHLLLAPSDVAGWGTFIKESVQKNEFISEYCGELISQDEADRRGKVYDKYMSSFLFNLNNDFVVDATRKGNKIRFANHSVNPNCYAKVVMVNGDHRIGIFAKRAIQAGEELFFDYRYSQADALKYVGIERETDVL
T1 sequence (O75530 whole entry partner): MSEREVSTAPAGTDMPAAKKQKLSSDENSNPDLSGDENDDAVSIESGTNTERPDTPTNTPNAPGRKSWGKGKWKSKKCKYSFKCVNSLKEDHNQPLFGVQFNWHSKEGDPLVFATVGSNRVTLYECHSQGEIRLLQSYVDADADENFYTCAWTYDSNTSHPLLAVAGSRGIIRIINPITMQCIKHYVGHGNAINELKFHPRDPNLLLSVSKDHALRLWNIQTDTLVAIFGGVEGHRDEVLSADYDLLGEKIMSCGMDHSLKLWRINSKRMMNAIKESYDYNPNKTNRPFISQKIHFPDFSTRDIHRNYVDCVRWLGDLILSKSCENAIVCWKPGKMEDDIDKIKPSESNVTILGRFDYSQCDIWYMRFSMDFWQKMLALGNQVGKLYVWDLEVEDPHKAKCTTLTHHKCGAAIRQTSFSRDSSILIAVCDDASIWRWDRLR
T1 sequence (Q15022 whole entry partner): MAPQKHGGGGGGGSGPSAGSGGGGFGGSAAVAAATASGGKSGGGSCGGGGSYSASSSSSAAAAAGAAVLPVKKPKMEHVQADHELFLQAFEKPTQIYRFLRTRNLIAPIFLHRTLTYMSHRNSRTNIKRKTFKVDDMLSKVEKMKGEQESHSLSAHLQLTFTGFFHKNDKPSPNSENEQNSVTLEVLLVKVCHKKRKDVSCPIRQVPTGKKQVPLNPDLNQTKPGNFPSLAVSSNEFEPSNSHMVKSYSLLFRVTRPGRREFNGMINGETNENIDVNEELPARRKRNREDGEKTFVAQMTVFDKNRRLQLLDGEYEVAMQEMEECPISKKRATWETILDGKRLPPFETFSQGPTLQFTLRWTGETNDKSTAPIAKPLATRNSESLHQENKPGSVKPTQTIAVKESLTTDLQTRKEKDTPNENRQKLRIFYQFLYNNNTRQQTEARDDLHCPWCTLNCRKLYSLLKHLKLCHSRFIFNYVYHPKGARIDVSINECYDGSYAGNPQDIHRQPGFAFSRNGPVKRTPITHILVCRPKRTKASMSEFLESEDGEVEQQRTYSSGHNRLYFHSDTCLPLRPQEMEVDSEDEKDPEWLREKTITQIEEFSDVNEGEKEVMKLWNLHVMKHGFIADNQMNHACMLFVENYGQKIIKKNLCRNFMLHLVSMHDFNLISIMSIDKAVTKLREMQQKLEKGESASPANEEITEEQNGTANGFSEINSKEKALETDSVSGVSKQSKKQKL
T1 sequence (Q09028 whole entry partner): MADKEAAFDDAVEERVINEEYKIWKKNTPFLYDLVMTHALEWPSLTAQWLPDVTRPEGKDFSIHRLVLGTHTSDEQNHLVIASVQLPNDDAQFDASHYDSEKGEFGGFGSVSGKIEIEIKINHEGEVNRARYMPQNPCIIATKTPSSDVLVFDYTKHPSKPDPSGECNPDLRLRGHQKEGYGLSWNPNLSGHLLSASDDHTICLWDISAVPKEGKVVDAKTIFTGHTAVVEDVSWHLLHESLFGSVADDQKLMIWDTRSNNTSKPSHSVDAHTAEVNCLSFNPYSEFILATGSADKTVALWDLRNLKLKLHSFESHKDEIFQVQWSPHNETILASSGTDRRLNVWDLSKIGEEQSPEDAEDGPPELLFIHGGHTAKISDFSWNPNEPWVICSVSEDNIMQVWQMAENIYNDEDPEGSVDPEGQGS
T1 sequence (Q6ZN18 whole entry partner): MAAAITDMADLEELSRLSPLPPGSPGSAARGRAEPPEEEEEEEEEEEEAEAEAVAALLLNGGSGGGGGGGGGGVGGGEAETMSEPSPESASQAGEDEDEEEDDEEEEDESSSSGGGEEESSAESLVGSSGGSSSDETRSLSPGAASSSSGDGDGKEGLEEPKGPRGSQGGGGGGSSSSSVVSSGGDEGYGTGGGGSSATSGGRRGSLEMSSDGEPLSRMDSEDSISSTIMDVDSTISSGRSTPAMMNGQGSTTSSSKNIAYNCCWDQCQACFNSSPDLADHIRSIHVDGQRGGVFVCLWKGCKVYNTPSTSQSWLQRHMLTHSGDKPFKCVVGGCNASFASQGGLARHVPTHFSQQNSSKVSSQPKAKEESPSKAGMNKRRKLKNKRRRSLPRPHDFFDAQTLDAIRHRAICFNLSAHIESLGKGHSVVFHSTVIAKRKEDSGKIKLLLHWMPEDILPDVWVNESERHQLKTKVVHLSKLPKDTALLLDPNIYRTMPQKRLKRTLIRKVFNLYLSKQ
Chain of EZH2 (Q15910 whole entry): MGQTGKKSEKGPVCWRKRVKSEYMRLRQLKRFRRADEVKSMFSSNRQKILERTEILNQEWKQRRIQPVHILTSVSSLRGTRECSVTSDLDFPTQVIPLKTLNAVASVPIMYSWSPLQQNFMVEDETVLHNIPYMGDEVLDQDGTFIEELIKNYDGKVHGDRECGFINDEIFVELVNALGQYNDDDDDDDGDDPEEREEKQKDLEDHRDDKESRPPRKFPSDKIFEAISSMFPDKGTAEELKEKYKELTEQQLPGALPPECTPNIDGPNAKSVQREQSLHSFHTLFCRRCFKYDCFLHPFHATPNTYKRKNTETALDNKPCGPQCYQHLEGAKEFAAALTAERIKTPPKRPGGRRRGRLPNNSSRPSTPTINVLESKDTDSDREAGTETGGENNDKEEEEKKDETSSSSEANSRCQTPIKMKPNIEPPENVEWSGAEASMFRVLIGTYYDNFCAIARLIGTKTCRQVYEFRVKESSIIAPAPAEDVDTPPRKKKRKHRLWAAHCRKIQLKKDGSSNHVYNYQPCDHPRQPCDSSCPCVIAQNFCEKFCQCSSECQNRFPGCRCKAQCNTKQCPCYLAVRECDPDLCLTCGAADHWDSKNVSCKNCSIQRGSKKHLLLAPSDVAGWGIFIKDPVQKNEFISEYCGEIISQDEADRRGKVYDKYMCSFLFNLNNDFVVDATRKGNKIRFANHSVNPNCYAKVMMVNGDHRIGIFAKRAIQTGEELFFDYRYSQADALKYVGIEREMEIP
Chain of EZH2 (O75530 whole entry partner): as the sequence (O75530 whole entry partner) above
Chain of EZH2 (Q15022 whole entry partner): as the sequence (Q15022 whole entry partner) above
Chain of EZH2 (Q09028 whole entry partner): as the sequence (Q09028 whole entry partner) above
Chain of EZH2 (Q6ZN18 whole entry partner): as the sequence (Q6ZN18 whole entry partner) above
Description for EZH1: The inhibitory activities of the synthetic compounds against EZH1 or EZH2 methyltransferase were measured. The experiment was conducted by Reaction Biology Corp., and the activity of EZH1 or EZH2 was measured using a radiometric scintillation proximity assay. […] The reaction buffer consisted of 50 mmol/L Tris-HCl (pH 8.0), 50 mmol/L NaCl, 1 mmol/L EDTA, 1 mmoL/L DTT, 1 mmol/L PMSF, and 1% DMSO. Trichloroacetic acid was added to terminate the reaction, and PVT streptavidin-coated SPA beads were added to each reaction solution, followed by further reaction at room temperature for 1 hour again. The methylation value of the substrate peptide was measured using the TopCount NXT plate reader.

Take `Cc1cc(C)c(CN2CCc3c(C)c4c(c(Cl)c3C2=O)OC(C)([C@H]2CC[C@H](N(C)C)CC2)O4)c(=O)[nH]1` (single isomer, unassigned) [Compound 5, 4-chloro-6-((4,6-dimethyl-2-oxo-1,2-dihydropyridin-3-yl)methyl)-2-(trans-4-(dimethylamino)cyclohexyl)-2,9-dimethyl-7,8-dihydro-[1,3]dioxolo[4,5-g]isoquinolin-5(6H)-one]: in data set [1], the “Residual amount (%) of test compound after 1 hour of reaction, Human” value (“Residual amount (%) of test compound … Human” below) is reported as 89%. Moreover, the results for the IC50 against EZH2 and on EZH1 were 1.3 nM and 16 nM, respectively. Moreover, the “Residual amount (%) of test compound after 1 hour of reaction, Mouse” value (shortened to “Residual amount (%) of test compound … Mouse”) in data set [2] was 78%. Moreover, in data set [3], the concentration for 50% growth inhibition (GI50) stood at 2.4 nM.
Regarding `Cc1cc(C)c(CN2CCc3c(Cl)c4c(c(C)c3C2=O)OC(C)([C@H]2CC[C@H](N(C)C)CC2)O4)c(=O)[nH]1` (single isomer, unassigned) [Compound 11, 9-chloro-6-((4,6-dimethyl-2-oxo-1,2-dihydropyridin-3-yl)methyl)-2-(trans-4-(dimethylamino)cyclohexyl)-2,4-dimethyl-7,8-dihydro-[1,3]dioxolo[4,5-g]isoquinolin-5(6H)-one], the “Residual amount (%) of test compound … Human” value in data set [1] came to 37%. Moreover, the 50% inhibitory concentration (IC50) against EZH2 was 116 to 473 nM; against EZH1, more than 1000 nM. In data set [2], the “Residual amount (%) of test compound … Mouse” value is recorded as 70%. Also, the GI50 in data set [3] was not below 563 nM.
The matching figures for `Cc1cc(C)c(CN2CCc3c(C)c4c(c(C)c3C2=O)OC(C)([C@H]2CC[C@H](N(C)C)CC2)O4)c(=O)[nH]1` (single isomer, unassigned) [Compound 41, 6-((4,6-dimethyl-2-oxo-1,2-dihydropyridin-3-yl)methyl)-2-(trans-4-(dimethylamino)cyclohexyl)-2,4,9-trimethyl-7,8-dihydro-[1,3]dioxolo[4,5-g]isoquinolin-5(6H)-one]: 53%, 69 nM, more than 1000 nM, 63% and 69 nM.
Take `Cc1cc(C)c(CN2CCc3c(Cl)c4c(c(C)c3C2=O)OC(C)(C2CCOCC2)O4)c(=O)[nH]1` (stereo not shown) [Compound 24, 9-chloro-6-((4,6-dimethyl-2-oxo-1,2-dihydropyridin-3-yl)methyl)-2,4-dimethyl-2-(tetrahydro-2H-pyran-4-yl)-7,8-dihydro-[1,3]dioxolo[4,5-g]isoquinolin-5(6H)-one]: the IC50 on EZH2 came to 3 nM; against EZH1, 34 nM. Besides, the 50% growth inhibitory concentration (GI50) in data set [3] (setting [4]) is 62 nM.
As for `Cc1cc(C)c(CN2CCc3c(Cl)c4c(c(C)c3C2=O)OC(C)(CCCCN(C)C)O4)c(=O)[nH]1` (stereo not shown) [Compound 26, 9-chloro-6-((4,6-dimethyl-2-oxo-1,2-dihydropyridin-3-yl)methyl)-2-(4-(dimethylamino)butyl)-2,4-dimethyl-7,8-dihydro-[1,3]dioxolo[4,5-g]isoquinolin-5(6H)-one], the results for the half-maximal inhibitory concentration (IC50) at EZH2 and against EZH1 were 6.2 nM and 85 nM, respectively. In data set [3] (setting [4]), the GI50 was determined as 99 nM.
Consider `Cc1cc(C)c(CN2CCc3c(Cl)c4c(c(C)c3C2=O)OC(C)(C2CCNCC2)O4)c(=O)[nH]1` (stereo not shown) [Compound 28, 9-chloro-6-((4,6-dimethyl-2-oxo-1,2-dihydropyridin-3-yl)methyl)-2,4-dimethyl-2-(piperidin-4-yl)-7,8-dihydro-[1,3]dioxolo[4,5-g]isoquinolin-5(6H)-one], for which the IC50 against EZH2 was determined as 3.2 nM; on EZH1 it was 55 nM. Besides, the GI50 in data set [3] (setting [4]) was 14 nM.
Consider `Cc1cc(C)c(CN2CCc3c(Cl)c4c(c(C)c3C2=O)OC(C)(C2CCN(C)CC2)O4)c(=O)[nH]1` (stereo not shown) [Compound 29, 9-chloro-6-((4,6-dimethyl-2-oxo-1,2-dihydropyridin-3-yl)methyl)-2,4-dimethyl-2-(1-methylpiperidin-4-yl)-7,8-dihydro-[1,3]dioxolo[4,5-g]isoquinolin-5(6H)-one], for which the results for the IC50 against EZH2 and at EZH1 were 5 nM and 136 nM, respectively. For the same compound, the 50% growth inhibitory concentration (GI50) in data set [3] (setting [4]) was 51 nM.
`CC[C@@H](O)C(=O)N1CCC(C2(C)Oc3c(C)c4c(c(Cl)c3O2)CCN(Cc2c(C)cc(C)[nH]c2=O)C4=O)CC1` (stereo partly drawn) [Compound 30, 9-chloro-6-((4,6-dimethyl-2-oxo-1,2-dihydropyridin-3-yl)methyl)-2-(1-((R)-2-hydroxybutanoyl)piperidin-4-yl)-2,4-dimethyl-7,8-dihydro-[1,3]dioxolo[4,5-g]isoquinolin-5(6H)-one]: the half-inhibitory concentration (IC50) was determined as 3.4 nM on EZH2 and 190 nM against EZH1. Also, the GI50 in data set [3] (setting [4]) turned out to be 307 nM.
For `Cc1cc(C)c(CN2CCc3c(Cl)c4c(c(C)c3C2=O)OC(C)(C2CCN(CC(F)(F)F)CC2)O4)c(=O)[nH]1` (stereo not shown) [Compound 31, 9-chloro-6-((4,6-dimethyl-2-oxo-1,2-dihydropyridin-3-yl)methyl)-2,4-dimethyl-2-(1-(2,2,2-trifluoroethyl)piperidin-4-yl)-7,8-dihydro-[1,3]dioxolo[4,5-g]isoquinolin-5(6H)-one], in that order: 3.8 nM, 51 nM and 231 nM.
Take `C=Cc1c2c(c(C)c3c1OC(C)([C@H]1CC[C@H](N(C)C)CC1)O3)C(=O)N(Cc1c(C)cc(C)[nH]c1=O)CC2` (stereo partly drawn) [Compound 52, 6-((4,6-dimethyl-2-oxo-1,2-dihydropyridin-3-yl)methyl)-2-(trans-4-(dimethylamino)cyclohexyl)-2,4-dimethyl-9-vinyl-7,8-dihydro-[1,3]dioxolo[4,5-g]isoquinolin-5(6H)-one]: in data set [1], the “Residual amount (%) of test compound … Human” value is reported as 62%. In addition, the half-maximal inhibitory concentration (IC50) was in the range of 3.4 to 3.7 nM against EZH2 and 32 to 55 nM on EZH1. The “Residual amount (%) of test compound … Mouse” value in data set [2] is on record as 61%. The GI50 in data set [3] (setting [4]) was in the range of 4.4 to 9.7 nM.
For the compound `C#Cc1c2c(c(C)c3c1OC(C)([C@H]1CC[C@H](N(C)C)CC1)O3)C(=O)N(Cc1c(C)cc(C)[nH]c1=O)CC2` (stereo partly drawn) [Compound 53, 6-((4,6-dimethyl-2-oxo-1,2-dihydropyridin-3-yl)methyl)-2-(trans-4-(dimethylamino)cyclohexyl)-9-ethynyl-2,4-dimethyl-7,8-dihydro-[1,3]dioxolo[4,5-g]isoquinolin-5(6H)-one], the “Residual amount (%) of test compound … Human” value in data set [1] was 67%. In addition, the IC50 on EZH2 is 4.5 to 9.1 nM; against EZH1, 27 to 139 nM. Also, in data set [2], the “Residual amount (%) of test compound … Mouse” value stood at 85%. Also, the 50% growth inhibitory concentration (GI50) in data set [3] (setting [4]) lay in the range of 5.1 to 14 nM.
On to `Cc1cc(C)c(CN2CCc3c(c(C)c4c(c3C3CC3)OC(C)([C@H]3CC[C@H](N(C)C)CC3)O4)C2=O)c(=O)[nH]1` (stereo partly drawn) [Compound 54, 9-cyclopropyl-6-((4,6-dimethyl-2-oxo-1,2-dihydropyridin-3-yl)methyl)-2-(trans-4-(dimethylamino)cyclohexyl)-2,4-dimethyl-7,8-dihydro-[1,3]dioxolo[4,5-g]isoquinolin-5(6H)-one], for which the 50% inhibitory concentration (IC50) against EZH2 is 6.4 nM; at EZH1, 41 nM. Moreover, the 50% growth inhibitory concentration (GI50) in data set [3] (setting [4]) turned out to be 19 nM.
The matching figures for `Cc1cc(C)c(CN2CCc3c(C#N)c4c(c(C)c3C2=O)OC(C)([C@H]2CC[C@H](N(C)C)CC2)O4)c(=O)[nH]1` (stereo partly drawn) [Compound 69, 6-((4,6-dimethyl-2-oxo-1,2-dihydropyridin-3-yl)methyl)-2-(trans-4-(dimethylamino)cyclohexyl)-2,4-dimethyl-5-oxo-5,6,7,8-tetrahydro-[1,3]dioxolo[4,5-g]isoquinolin-9-carbonitrile]: 2.7 nM, 65 nM and 10 nM.
